From patent EP2629618B1, “AGROCHEMICAL CO[…]” (Syngenta Limited, priority 2010, dated 2012)
Where two headings read alike, the source gives them in different places.

Test system: Septoria tritici
Experiment: curative testing against Septoria tritici on wheat plants in pots, visual score of disease severity
Format: in vivo
Details: Zymoseptoria tritici, adjuvant (if any) 0.1 %w/v, spray 200l/ha, read-out: % Efficacy; for Emax at 3 µg/mL: isopyrazam 3 mg per litre; for Emax at 10 µg/mL: isopyrazam 10 mg per litre; for Emax at 30 µg/mL: isopyrazam 30 mg per litre; for Emax at 100 µg/mL: isopyrazam 100 mg per litre
Method: The test data relate to curative testing against Septoria tritici on wheat. The wheat plants in pots are inoculated 3 to 5 days prior to spraying as indicated. The isopyrazam is formulated as an aqueous suspension concentrate formulation containing 250 g/l of isopyrazam. The suspension concentrate formulation is diluted to the concentrations of isopyrazam shown in the Tables with water prior to spraying. When adjuvant is included it is used at 0.1 %w/v in the spray dilution unless otherwise indicated. An inert non-adjuvant additive is included in all treatments to provide spray retention. The spray application is 200l/ha.
Three assessments are made per pot of wheat with […] fully randomised. The three replicate pots are visually assessed and given a score of disease severity. The percent efficacy corresponds to the reduction in average disease severity in the treated pots compared to the untreated pots as a percentage of the average disease severity of the untreated pots. Each Table represents a side-by-side experiment.

[1] = Table 2, treatment 4 days, assessment 18 days after inoculation
[2] = Table 3, treatment 4 days, assessment 17 days after inoculation
[3] = Table 4, treatment 4 days, assessment 18 days after inoculation
[4] = Table 5, treatment 3 days, assessment 19 days after inoculation
[5] = Table 6, treatment 4 days, assessment 17 days after inoculation
[6] = Table 7, treatment 4 days, assessment 18 days after inoculation

`CC(C)C1C2CCC1c1c(NC(=O)c3cn(C)nc3C(F)F)cccc12` (stereo not drawn) [isopyrazam, Isopyrazam] was tested, and the Emax at 3 µg/mL [1] was 32%, the Emax at 10 µg/mL [1] was 36% and the Emax at 30 µg/mL [1] was 47%. For the same molecule, the Emax at 100 µg/mL [1] was 41%, the Emax at 3 µg/mL [2] was 17.9% and the Emax at 10 µg/mL [2] was -0.53%. It also gave an Emax at 30 µg/mL [2] of 10%, an Emax at 100 µg/mL [2] of 8.9% and an Emax at 3 µg/mL [3] of 41%. It also gave an Emax at 10 µg/mL [3] of 39%, an Emax at 30 µg/mL [3] of 29% and an Emax at 100 µg/mL [3] of 25%. It also gave an Emax at 3 µg/mL [4] of 8.8%, an Emax at 10 µg/mL [4] of 9.4% and an Emax at 30 µg/mL [4] of 14%. It also gave an Emax at 100 µg/mL [4] of 0.59%, an Emax at 3 µg/mL [5] of 9.1% and an Emax at 10 µg/mL [5] of 6.8%. The Emax at 30 µg/mL [5] was 19%, the Emax at 100 µg/mL [5] was 14% and the Emax at 3 µg/mL [6] was 5.1%. It also gave an Emax at 10 µg/mL [6] of 15%, an Emax at 30 µg/mL [6] of -18% and an Emax at 100 µg/mL [6] of 32%.
